Results reported in US8247376B2, “NGAL for reduction and amelioration of ischemic and nephrotoxic injuries” (The Trustees of Columbia University, priority 2004, dated 2012).
“Also recorded” adds a separate entry of the source. Blank lines part the entries; values can stand above or below the molecule they belong to.

How the values were obtained:
[1] = system: mouse model of ATN or ischemia/reperfusion injury; test: Mouse model of ATN (30 min clamp, contralateral nephrectomy): plasma creatinine; format: in vivo, mice; conditions: mice, 30 minutes of ischemia; 10 μg protein or single dose, 15 min prior to ischemia
Description: Male C57BL/6 mice (20-25 gr; Charles River) were anesthetized with intraperitoneal pentobarbital (50 mg/kg) and placed on a heating pad under a warming light to maintain 37© core body temperature. Kidneys were exposed through an abdominal section and the right kidney was either removed or its vascular pedicle and ureter ligated. The vascular pedicle of the left kidney or both kidneys was clamped by a microaneurysm clip (Kent Scientific) for 30 minutes after right nephrectomy. This period of ischemia generated reproducible renal injury but minimized mortality. During the procedure, PBS (0.5 ml) was used to dampen the peritoneum. The animal was closed with 5-0 Nylon. Saline, NGAL, retinol-loaded retinol binding protein (RBP), enterochelin, or desferroxamine mesylate (DFO) were injected into the peritoneum or subcutaneously 15 min. prior to ischemia or 1-2 hr after reperfusion.
After 6 or 24 hr of reperfusion, heparinized plasma, urine and kidney samples were obtained to measure NGAL (polyclonal 1:500), Heme oxygenase-1 (Stressgen, 1:2000), E-cadherin (BD Transduction Labs, 1:2000), N-cadherin (BD Transduction Labs, 1:3000) and GAPDH (Chemicon International, 1:3000) using immunoblots. Plasma was also used for creatinine and blood urea nitrogen colorimetric assays. Sagittal sections of the kidney were fixed in 4% formalin, or were snap frozen for mRNA and protein analysis. Paraffin-embedded sections (5 μm) were stained with hematoxylin-eosin or by an in situ kit (Fluorescein-TUNEL, Roche) for apoptotic nuclei or for total nuclei (Toprol, Molecular Probes). For cell proliferation analysis, BrdU was injected into the peritoneum 1 hour before sacrifice, and cryostat sections were stained with anti-BrdU (Roche) according to the manufacturer.

NGAL = NGAL (Homo sapiens, UniProt P80188); conditions: read-out: affinity of siderophore binding to NGAL (calyx); cited from earlier work
[2] = Distribution and radioautography of ^55Fe after ^55Fe:Sid:NGAL injection; format: in vivo, mice; conditions: non-protein bound ^55Fe citrate
[3] = previously reported; cited from earlier work

Molecule: O=C(N[C@H]1COC(=O)[C@@H](NC(=O)c2cccc(O)c2O)COC(=O)[C@@H](NC(=O)c2cccc(O)c2O)COC1=O)c1cccc(O)c1O [Sid, enterochelin, reference compound]
- protection against ATN (creatinine, FIG. 17A) [1]: failed to protect against ATN; also recorded: ineffective
- Kd (NGAL): 0.4 nM

- iron recovered in the kidney [2]: 1.5%
Molecule: O=C([O-])CC(O)(CC(=O)[O-])C(=O)[O-].[Fe+3] [^55Fe citrate]

B1: human NGAL: human NGAL of previously reported clearance data (protein, UniProt P80188 21-198, looked up)
Neutrophil …: QDSTSDLIPAPPLSKVPLQQNFQDNQFQGKWYVVGLAGNAILREDKDPQKMYATIYELKEDKSYNVTSVLFRKKKCDYWIRTFVPGCQPGEFTLGNIKSYPGLTSYLVRVVSTNYNQHAMVFFKKVSQNREYFKITLYGRTKELTSELKENFIRFSKSLGLPENHIVFPVPIDQCIDG
- kidney versus liver level per mg protein [3]: 12 fold
- t1/2 of clearance from the circulation [3]: 10 min
